Measured values as given in PubChem BioAssay AID2060502 (Molecular Pharmacology Branch, DTP, NCI, 2025).
pIC50: −log10 of the molar value. Values belong to the compound of their own block, whether it stands above or below them.

Tested on: 885724-159-R-J1-PDC complex spheroid viability
Assay: Anticancer human tumor 885724-159-R-J1-PDC patient-derived pancreatic adenocarcinoma cell line growth inhibition [GQUAD]
Settings: for pIC50: curve of first compound; for viability, T/C: stronger effect = lower value
Method in brief: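 Multi-cell-type spheroids of tumor cells with HUVEC and mesenchymal stem cells, treated with drug combinations. Concentrations descend in half-log steps from near clinical Cmax, or from 10 microM where Cmax is unknown; viability read-out.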

[1] = second compound 0.0316 µM, first compound 0.0316 µM
[2] = second compound 0.0316 µM, first compound 0.316 µM
[3] = second compound 0.1 µM, first compound 0.0316 µM
[4] = second compound 0.1 µM, first compound 0.316 µM
[5] = second compound 0.316 µM, first compound 0.0316 µM
[6] = second compound 0.316 µM, first compound 0.316 µM
[7] = second compound 1 µM, first compound 0.0316 µM
[8] = second compound 1 µM, first compound 0.316 µM
[9] = second compound 3.16 µM, first compound 0.0316 µM
[10] = second compound 3.16 µM, first compound 0.316 µM
[11] = second compound 10 µM, first compound 0.0316 µM
[12] = second compound 10 µM, first compound 0.316 µM
[13] = second compound 0.0316 µM, first compound 0.1 µM
[14] = second compound 0.0316 µM, first compound 1 µM
[15] = second compound 0.0316 µM, first compound 3.16 µM
[16] = second compound 0.0316 µM, first compound 10 µM
[17] = second compound 0.1 µM, first compound 0.1 µM
[18] = second compound 0.1 µM, first compound 1 µM
[19] = second compound 0.1 µM, first compound 3.16 µM
[20] = second compound 0.1 µM, first compound 10 µM
[21] = second compound 0.316 µM, first compound 0.1 µM
[22] = second compound 0.316 µM, first compound 1 µM
[23] = second compound 0.316 µM, first compound 3.16 µM
[24] = second compound 0.316 µM, first compound 10 µM
[25] = second compound 1 µM, first compound 0.1 µM
[26] = second compound 1 µM, first compound 1 µM
[27] = second compound 1 µM, first compound 3.16 µM
[28] = second compound 1 µM, first compound 10 µM
[29] = second compound 3.16 µM, first compound 0.1 µM
[30] = second compound 3.16 µM, first compound 1 µM
[31] = second compound 3.16 µM, first compound 3.16 µM
[32] = second compound 3.16 µM, first compound 10 µM
[33] = second compound 10 µM, first compound 0.1 µM
[34] = second compound 10 µM, first compound 1 µM
[35] = second compound 10 µM, first compound 3.16 µM
[36] = second compound 10 µM, first compound 10 µM
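Also: spheroids exposed to agents for seven days before readout.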
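For viability, T/C in this document: percent of vehicle control viability where 100% = DMSO wells.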

Compound: CCc1c2c(nc3ccc(O)cc13)-c1cc3c(c(=O)n1C2)COC(=O)[C@]3(O)CC + CN(C)c1ccc(Nc2c3ccc(NC(=O)CCN4CCCC4)cc3nc3cc(NC(=O)CCN4CCCC4)ccc23)cc1
pIC50 (second compound 0.0316 µM): 7.25 | pIC50 (second compound 0.1 µM): 7.23 | pIC50 (second compound 0.316 µM): 7.31 | pIC50 (second compound 1 µM): 7.62 | pIC50 (second compound 3.16 µM): 7.66 | pIC50 (second compound 10 µM): 7.70 | viability, T/C (second compound 0.0316 µM, first compound 0.000999 µM): 93.4% | viability, T/C (second compound 0.0316 µM, first compound 0.00316 µM): 78.9% | viability, T/C (second compound 0.0316 µM, first compound 0.00999 µM): 66.8% | viability, T/C [1]: 56.9% | viability, T/C (second compound 0.0316 µM, first compound 0.0999 µM): 50.8% | viability, T/C [2]: 9.22% | viability, T/C (second compound 0.1 µM, first compound 0.000999 µM): 93.7% | viability, T/C (second compound 0.1 µM, first compound 0.00316 µM): 72.2% | viability, T/C (second compound 0.1 µM, first compound 0.00999 µM): 63.6% | viability, T/C [3]: 59.7% | viability, T/C (second compound 0.1 µM, first compound 0.0999 µM): 51.1% | viability, T/C [4]: 7.61% | viability, T/C (second compound 0.316 µM, first compound 0.000999 µM): 83.1% | viability, T/C (second compound 0.316 µM, first compound 0.00316 µM): 73.1% | viability, T/C (second compound 0.316 µM, first compound 0.00999 µM): 63.9% | viability, T/C [5]: 48.1% | viability, T/C (second compound 0.316 µM, first compound 0.0999 µM): 51.6% | viability, T/C [6]: 9.1% | viability, T/C (second compound 1 µM, first compound 0.000999 µM): 83.3% | viability, T/C (second compound 1 µM, first compound 0.00316 µM): 65% | viability, T/C (second compound 1 µM, first compound 0.00999 µM): 56.6% | viability, T/C [7]: 47.4% | viability, T/C (second compound 1 µM, first compound 0.0999 µM): 41.8% | viability, T/C [8]: 9.11% | viability, T/C (second compound 3.16 µM, first compound 0.000999 µM): 67.1% | viability, T/C (second compound 3.16 µM, first compound 0.00316 µM): 60.4% | viability, T/C (second compound 3.16 µM, first compound 0.00999 µM): 53.7% | viability, T/C [9]: 42.7% | viability, T/C (second compound 3.16 µM, first compound 0.0999 µM): 40.1% | viability, T/C [10]: 8.41% | viability, T/C (second compound 10 µM, first compound 0.000999 µM): 71% | viability, T/C (second compound 10 µM, first compound 0.00316 µM): 70.1% | viability, T/C (second compound 10 µM, first compound 0.00999 µM): 50.2% | viability, T/C [11]: 42.9% | viability, T/C (second compound 10 µM, first compound 0.0999 µM): 39.2% | viability, T/C [12]: 9.18%

pIC50 (second compound 0.0316 µM): 5.22 | pIC50 (second compound 0.1 µM): 5.16 | pIC50 (second compound 0.316 µM): 5.21 | pIC50 (second compound 1 µM): 5.35 | pIC50 (second compound 3.16 µM): 5.63 | pIC50 (second compound 10 µM): 5.89
Compound: C#Cc1c(F)ccc2cc(O)cc(-c3ncc4c(N5CC6CCC(C5)N6)nc(OCC56CCCN5CC(F)C6)nc4c3F)c12 (stereo unspecified) + Cc1cnc(CNC(=O)c2c(=O)c3ccc(N4CCCN(C)CC4)nc3n3c2sc2ccccc23)cn1
viability, T/C [1]: 91.6% | viability, T/C [13]: 120% | viability, T/C [2]: 117% | viability, T/C [14]: 103% | viability, T/C [15]: 67% | viability, T/C [16]: 36.6% | viability, T/C [3]: 106% | viability, T/C [17]: 110% | viability, T/C [4]: 100% | viability, T/C [18]: 107% | viability, T/C [19]: 71.4% | viability, T/C [20]: 39.7% | viability, T/C [5]: 110% | viability, T/C [21]: 100% | viability, T/C [6]: 90.8% | viability, T/C [22]: 94.5% | viability, T/C [23]: 69.5% | viability, T/C [24]: 35% | viability, T/C [7]: 92.8% | viability, T/C [25]: 81.3% | viability, T/C [8]: 84.2% | viability, T/C [26]: 75.3% | viability, T/C [27]: 59.9% | viability, T/C [28]: 28.4% | viability, T/C [9]: 77.3% | viability, T/C [29]: 70.2% | viability, T/C [10]: 70% | viability, T/C [30]: 62.9% | viability, T/C [31]: 45.3% | viability, T/C [32]: 19.1% | viability, T/C [11]: 61.5% | viability, T/C [33]: 62.7% | viability, T/C [12]: 54.6% | viability, T/C [34]: 55.8% | viability, T/C [35]: 36.6% | viability, T/C [36]: 1.29%

Compound: COc1cccc2c1C(=O)c1c(O)c3c(c(O)c1C2=O)CC(O)(C(=O)CO)CC3OC1CC(N)C(O)C(C)O1 (stereo unspecified) + CN(C)c1ccc(Nc2c3ccc(NC(=O)CCN4CCCC4)cc3nc3cc(NC(=O)CCN4CCCC4)ccc23)cc1
pIC50 (second compound 0.0316 µM): 5.66 | pIC50 (second compound 0.1 µM): 5.70 | pIC50 (second compound 0.316 µM): 5.76 | pIC50 (second compound 1 µM): 5.80 | pIC50 (second compound 3.16 µM): 5.79 | pIC50 (second compound 10 µM): 5.95 | viability, T/C [1]: 101% | viability, T/C [13]: 96.3% | viability, T/C [2]: 96.2% | viability, T/C [14]: 73.9% | viability, T/C [15]: 38.1% | viability, T/C [16]: 1.56% | viability, T/C [3]: 89.4% | viability, T/C [17]: 95.5% | viability, T/C [4]: 81% | viability, T/C [18]: 73.6% | viability, T/C [19]: 35.4% | viability, T/C [20]: 2.82% | viability, T/C [5]: 88.6% | viability, T/C [21]: 87.8% | viability, T/C [6]: 80.7% | viability, T/C [22]: 55.3% | viability, T/C [23]: 40.5% | viability, T/C [24]: 1.92% | viability, T/C [7]: 81.1% | viability, T/C [25]: 75% | viability, T/C [8]: 68.6% | viability, T/C [26]: 57% | viability, T/C [27]: 39.8% | viability, T/C [28]: 1.53% | viability, T/C [9]: 83.8% | viability, T/C [29]: 71% | viability, T/C [10]: 78.7% | viability, T/C [30]: 59.2% | viability, T/C [31]: 35.1% | viability, T/C [32]: 1.32% | viability, T/C [11]: 74.2% | viability, T/C [33]: 79.7% | viability, T/C [12]: 59.1% | viability, T/C [34]: 52.5% | viability, T/C [35]: 32.7% | viability, T/C [36]: 1.06%
